Measurements taken from patent US20130122541A1, “MICROORGANISM PRODUCTION OF HIGH-VALUE CHEMICAL PRODUCTS, AND RELATED COMPOSITIONS, METHODS AND SYSTEMS” (The Regents of the University of Colorado, priority 2010, published 2013).
Converted amounts (≈) assume the structure as drawn. Where two headings read alike, the source gives them in different places.

Assays:
E. coli = test: microbe, parasite or virus in culture; assay type: cell-based; settings: aerobic
Description: For MIC evaluations, the final results are expressed in chemical agent concentrations determined by analysis of the stock solution by HPLC (i.e., see Subsection IIIb).
The minimum inhibitory concentration (MIC) was determined aerobically in a 96 well-plate format. […] Media supplements were added according to levels reported in the Supplements Table, where specified. Overnight cultures of strains were grown in triplicate in 5 mL LB (with antibiotic where appropriate). A 1% (v/v) inoculum was introduced into a 5 ml culture of M9 minimal media.

C. necator (R. eutropha) = test: MIC evaluation of 3-HP, C. necator (R. eutropha) aerobic, FGN media, 96 well-plate, 24 h (Common Methods); assay type: cell-based; settings: for % Increase Over Control: supplements none, vs control, aerobic
Description: For MIC evaluations, the final results are expressed in chemical agent concentrations determined by analysis of the stock solution by HPLC (i.e., see Subsection IIIb). The minimum inhibitory concentration (MIC) was determined aerobically in a 96 well-plate format. […] Media supplements were added according to levels reported in Supplements Table, where specified. Overnight cultures of strains were grown in triplicate in 5 mL LB (with antibiotic where appropriate). […] The cells were further diluted 1:50 and a 10 μL aliquot was used to inoculate each well of a 96 well plate (˜10^4 cells per well) to total volume of 100 uL. […] Plates were incubated for 24 hours at 30 C.

[1] = Reactive extraction of 3-HP from clarified fermentation broth into tertiary amine non-polar phase with co-solvents; assay type: physicochemical; settings: for 3-HP concentration raffinate: start 96.85 g/L 3-HP, single pass
Description: Calcium chloride at 1 M was added as a flocculent to reach a final concentration of about 8.2 g/L. Thereafter the pH was adjusted to a pH of approximately 2.0 using sulfuric acid. Thereafter a volume of this modified fermentation broth was centrifuged at approximately 3,200 g for 5 minutes to yield a clarified broth and a pellet, which was discarded.
Portions of the clarified broth were then subjected to reactive extraction by mixing with a tertiary amine non-polar phase comprising various co-solvents. […] Amines included Alamine 336, described above, and tripentylamine.

E. coli K12 = test: microbe, parasite or virus in culture; settings: Escherichia coli, K12, 24 h
[2] = sample 1: Alamine 336 with Butanol
[3] = sample 2: Tripentylamine with Butanol
[4] = sample 3: Tripentylamine with p-Xylene
[5] = sample 4: Tripentylamine with Methyl ethyl ketone
[6] = sample 5: Tripentylamine with Methyl tert-butyl ether
[7] = sample 1: Alamine 336 with Butanol, 3-HP mass start 0.97 G
[8] = sample 2: Tripentylamine with Butanol, 3-HP mass start 1.94 G
[9] = sample 3: Tripentylamine with p-Xylene, 3-HP mass start 1.94 G
[10] = sample 4: Tripentylamine with Methyl ethyl ketone, 3-HP mass start 1.94 G
[11] = sample 5: Tripentylamine with Methyl tert-butyl ether, 3-HP mass start 1.94 G

What does the source list for `O=C(O)CCO` [3-HP, 3-hydroxypropionic acid]?
% Increase Over Control (E. coli; strain BX_00323.0 (pJ61-aroG)): 40%; % Increase Over Control (E. coli; strain BX_00324.0 (pJ61-thrA)): 40%; % Increase Over Control (E. coli; strain BX_00325.0 (pJ61-asd)): 40%; % Increase Over Control (E. coli; strain BX_00326.0 (pJ61-ilvA)): 40%; % Increase Over Control (E. coli; strain BX_00327.0 (pJ61-cysM)): 40%; % Increase Over Control (E. coli; strain BX_00334.0 (pSmart-HC-Amp-cadA)): 60%; % Increase Over Control (E. coli; strain BX_00335.0 (pSmart-HC-Amp-prs)): 40%; % Increase Over Control (E. coli; strain BX_00336.0 (pSmart-HC-Amp-nrdAB)): 40%; % Increase Over Control (E. coli; strain BX_00337.0 (pSmart-HC-Amp-nrdEF)): 40%; % Increase Over Control (E. coli; strain BX_00352.0 (pSmart-LC-Kan-metC C1)): 40%; % Increase Over Control (E. coli; strain BX_00353.0 (pSmart-HC-Amp-metC)): 80%; % Increase Over Control (E. coli; strain BX_00354.0 (pSmart-HC-Amp-cynTS)): 80%; % Increase Over Control (E. coli; strain BX_00356.0 (pSmart-HC-Amp-LysA)): 20%; % Increase Over Control (E. coli; strain BX_00357.0 (pKK223-aroH*445)): 50%; % Increase Over Control (E. coli; strain BX_00358.0 (pKK223-aroH*447)): 75%; % Increase Over Control (E. coli; strain BX_00359.0 (pKK223-aroH*457)): 75%; % Increase Over Control (E. coli; strain BX_00361.0 (pACYC177 (Kan only)-cynTS)): 40%; % Increase Over Control (E. coli; strain BX_00362.0 (pACYC177 (Kan only)-aroH)): 20%; % Increase Over Control (E. coli; strain BX_00363.0 (pACYC177 (kan only)-speB)): 40%; % Increase Over Control (E. coli; strain BX_00364.0 (pACYC177 (Kan only)-metE)): 40%; % Increase Over Control (E. coli; strain BX_00365.0 (pACYC177 (Kan only)-metC)): 40%; % Increase Over Control (E. coli; strain BX_00368.0 (pBT-3-cynTS)): 20%; % Increase Over Control (E. coli; strain BX_00370.0 (pBT-3-speB)): 20%; % Increase Over Control (C. necator (R. eutropha); C. necator DSM 542, EZ Rich media): 200%; % Increase Over Control (C. necator (R. eutropha); C. necator DSM 542, FGN media): 0%; MIC (C. necator (R. eutropha); read-out: average MIC Assay Result (g/L 3-HP), C. necator DSM428, FGN media, supplements none (control), aerobic): 15 g/L (≈ 167 mM); MIC (C. necator (R. eutropha); read-out: average MIC Assay Result (g/L 3-HP), C. necator DSM 542, EZ Rich media, supplements none, aerobic): 60 g/L (≈ 666 mM); MIC (C. necator (R. eutropha); read-out: average MIC Assay Result (g/L 3-HP), C. necator DSM 542, FGN media, supplements none, aerobic): 15 g/L (≈ 167 mM); Total 3HP extracted [1, 2]: 0.59 G; Total 3HP extracted [1, 3]: 1.13 G; Total 3HP extracted [1, 4]: 0.46 G; Total 3HP extracted [1, 5]: 1.31 G; Total 3HP extracted [1, 6]: 0.73 G; % 3-HP extracted [1, 2]: 61%; % 3-HP raffinate [1, 2]: 39%; 3-HP concentration raffinate ([1]; sample 1: Alamine 336 with Butanol co-solvent): 53.94 g/L; 3-HP mass extractant [1, 7]: 0.59 G; 3-HP mass raffinate [1, 7]: 0.38 G; % 3-HP extracted [1, 3]: 58%; % 3-HP raffinate [1, 3]: 42%; 3-HP concentration raffinate ([1]; sample 2: Tripentylamine with Butanol co-solvent): 54.17 g/L; 3-HP mass extractant [1, 8]: 1.13 G; 3-HP mass raffinate [1, 8]: 0.81 G; % 3-HP extracted [1, 4]: 24%; % 3-HP raffinate [1, 4]: 76%; 3-HP concentration raffinate ([1]; sample 3: Tripentylamine with p-Xylene co-solvent): 78.69 g/L; 3-HP mass extractant [1, 9]: 0.46 G; 3-HP mass raffinate [1, 9]: 1.47 G; % 3-HP extracted [1, 5]: 67%; % 3-HP raffinate [1, 5]: 33%; 3-HP concentration raffinate ([1]; sample 4: Tripentylamine with Methyl ethyl ketone co-solvent): 52.75 g/L; 3-HP mass extractant [1, 10]: 1.31 G; 3-HP mass raffinate [1, 10]: 0.63 G; % 3-HP extracted [1, 6]: 38%; % 3-HP raffinate [1, 6]: 62%; 3-HP concentration raffinate ([1]; sample 5: Tripentylamine with Methyl tert-butyl ether co-solvent): 67.64 g/L; 3-HP mass extractant [1, 11]: 0.73 G; 3-HP mass raffinate [1, 11]: 1.21 G; MIC (E. coli K12; read-out: Minimum inhibitory concentration (MIC) for E. coli K12 in 100 g/L stock solution 3-HP (control)): 20 mg/mL (≈ 222 mM); MIC (E. coli K12; read-out: Minimum inhibitory concentration (MIC) of 3-HP for E. coli K12 in M9 minimal media): 30 mg/mL (≈ 333 mM)
